Where “and” joins values, the source holds several entries; their conditions need not be identical. Identical values can stand only once.
Columns and labels:
[1] = tested on: Babesia bovis (Texas strain); experiment: in vitro growth inhibition assay (SYBR Green I fluorescence), single drug and 1:1 combination; assay type: cell-based; details: for IC50: B. bovis in vitro culture, 4 days
Experimental: (§1) A microaerophilic stationary-phase culture system was used to maintain Babesia parasite cultures for a long time. Briefly, B. caballi (USDA strain) was grown using equine red blood cells (RBCs) in GIT medium supplemented with 40% equine serum. Theileria equi (USDA strain) was grown in equine RBCs in Medium 199 (M199; Sigma-Aldrich, Tokyo) supplemented with 40% equine serum, and hypoxanthine (MP Biomedicals, Santa Ana, CA, USA) at a final concentration of 13.6 μg/ml was used as a vital supplement. Babesia bovis (Texas strain) and B. bigemina (Argentina strain) were grown in bovine RBCs in M199 medium supplemented with 40% bovine serum. Meanwhile, B. divergens (Germany strain) was grown in bovine RBCs in medium RPMI 1640 (Sigma-Aldrich, Tokyo) supplemented with 40% bovine serum. All media included 60 U/ml penicillin G, 60 μg/ml streptomycin and 0.15 μg/ml amphotericin B (Sigma-Aldrich, St. Louis, MO, USA) to prevent bacterial contamination. The cultures were incubated at 37 °C in a humidified chamber with an atmosphere of 5% CO2, 5% O2 and 90% N2. Babesia microti (Munich strain) was recovered from − 80 °C stock, intraperitoneally injected in two 8-week old female BALB/c mice (Clea Japan, Tokyo, Japan), and the parasitemia was monitored every 2 days. The mice were euthanized using an anesthesia system containing isoflurane after parasitemia reached approximately 30%, and blood was collected by cardiac puncture to initiate the in vivo experiment. The animal experiment was conducted in accordance with the Regulations for Animal Experiments of Obihiro University of Agriculture and Veterinary Medicine, Japan (animal experiment accession number: 290168).
(§2) Assays were performed in accordance with the previously described protocol. Briefly, B. bovis, B. bigemina, B. divergens, B. caballi and T. equi cultures were harvested and adjusted to 1% parasitemia with fresh RBCs to start the inhibition assay. The assays were carried out using 96-well microtiter plates where only the 60 inner wells were used, while the peripheral wells were filled with sterile distillate water to reduce evaporation during incubation. In five 96-well plates, a volume of 2.5 µl each of B. bigemina- and B. bovis-iRBCs and 5 µl each of B. divergens-, B. caballi- and T. equi-iRBCs were added to each well in triplicate and mixed with a culture medium containing the drug concentrations to a total volume of 100 µl. Various concentrations of EA, β-CD EA, APSP EA, DA, CF and AQ were dissolved in a culture medium using two-fold dilution. Wells containing DMSO at a final concentration of 0.4% and iRBCs were used as a positive control, while wells with non-infected RBCs and culture medium were used as a negative control. Additionally, a drug combination assay was performed in parallel with the single drug assay at a constant ratio of 1:1, as described previously. […] The plates were incubated in a humidified incubator with 5% CO2, 5% O2 and 90% N2 for 4 days without changing the medium. On day 4, 100 µl of a lysis buffer containing 2 × SG1 was added to each well. The plates were wrapped with aluminum foil to avoid direct light exposure and incubated at room temperature. After 6 h, fluorescence values were measured using a fluorescence spectrophotometer (Fluoroskan Ascent; Thermo LabSystems, Oceanside, CA, USA) with excitation and emission wavelengths of 485 and 518 nm, respectively. The fluorescence data were subtracted from the negative control and used to calculate the IC50. To calculate the degree of association, the growth-inhibition values obtained were entered into CompuSyn software, based on the combination index (CI) values. […] The experiments were repeated three times.

[2] = tested on: Theileria equi (USDA strain); experiment: as above; assay type: cell-based; details: for IC50: T. equi in vitro culture, 4 days
Experimental: as §1, §2

[3] = tested on: B. bigemina (Argentina strain); experiment: as above; assay type: cell-based, Babesia bigemina; details: for IC50: B. bigemina in vitro culture, 4 days
Experimental: as §1
(§3) Assays were performed in accordance with the previously described protocol. Briefly, B. bovis, B. bigemina, B. divergens, B. caballi and T. equi cultures were harvested and adjusted to 1% parasitemia with fresh RBCs to start the inhibition assay. The assays were carried out using 96-well microtiter plates where only the 60 inner wells were used, while the peripheral wells were filled with sterile distillate water to reduce evaporation during incubation. In five 96-well plates, a volume of 2.5 µl each of B. bigemina- and B. bovis-iRBCs and 5 µl each of B. divergens-, B. caballi- and T. equi-iRBCs were added to each well in triplicate and mixed with a culture medium containing the drug concentrations to a total volume of 100 µl. Various concentrations of EA, β-CD EA, APSP EA, DA, CF and AQ were dissolved in a culture medium using two-fold dilution. Wells containing DMSO at a final concentration of 0.4% and iRBCs were used as a positive control, while wells with non-infected RBCs and culture medium were used as a negative control. Additionally, a drug combination assay was performed in parallel with the single drug assay at a constant ratio of 1:1, as described previously. […] The plates were incubated in a humidified incubator with 5% CO2, 5% O2 and 90% N2 for 4 days without changing the medium. On day 4, 100 µl of a lysis buffer containing 2 × SG1 was added to each well. The plates were wrapped with aluminum foil to avoid direct light exposure and incubated at room temperature. After 6 h, fluorescence values were measured using a fluorescence spectrophotometer (Fluoroskan Ascent; Thermo LabSystems, Oceanside, CA, USA) with excitation and emission wavelengths of 485 and 518 nm, respectively. The fluorescence data were subtracted from the negative control and used to calculate the IC50. […]

[4] = tested on: B. divergens (Germany strain); experiment: as above; assay type: cell-based, Babesia divergens; details: for IC50: B. divergens in vitro culture, 4 days
Experimental: as §1, §3

B. caballi (USDA strain) = experiment: as above; assay type: cell-based, Babesia caballi; details: for IC50: B. caballi in vitro culture, 4 days
Experimental: as §1, §3

[5] = tested on: Madin-Darby bovine kidney (MDBK) cell line; experiment: cytotoxicity assay (CCK-8); assay type: cell-based; details: for EC50: MDBK cells, 24 h exposure, CCK-8
Experimental: (§4) The MDBK cell line was maintained in 75 cm^2 culture flasks with Minimum Essential Medium Eagle (MEM; Gibco, Grand Island, NY, USA), while Dulbecco’s Modified Eagle’s Medium (DMEM; […] Each medium was supplemented with 10% fetal bovine serum, 0.5% penicillin/streptomycin (Gibco), and an additional 1% glutamine. Every 3 to 4 days, the medium was changed, and the cells were incubated until approximately 80% confluent. The cells were free from mycoplasma contamination after being checked by staining with 4,6-diamidino-2-phenylindole dihydrochloride (DAPI; Sigma-Aldrich, St. Louis). The cell detachment from the culture flask was done using TrypLE^TM Express (Gibco) after washing two times with Dulbecco’s phosphate-buffered saline (DPBS). Subsequently, viable cells were counted using a Neubauer Improved C-Chip (NanoEnTek Inc., Seoul, Korea) after staining with 0.4% trypan blue solution. The drug-exposure viability assay was performed in accordance with the recommendation for the Cell Counting Kit-8 (CCK-8; Dojindo, Kumamoto, Japan). Briefly, in a 96-well plate, 100 µl of cells at a density of 5 × 10^4 cells/ml were seeded per well and allowed to attach to the plate for 24 h at 37 °C in a humidified incubator with 5% CO2. Ten microliters of drug diluted two-fold were added to each well to a final concentration of 0.781 to 800 µM in triplicate. Wells with only a culture medium were used as blanks, while wells containing cells and a medium with 0.5% DMSO were used as positive controls. Drug exposure lasted for 24 h. After 24 h, 10 µl of CCK-8 was added, and the plate was further incubated for 3 h. Absorbance was measured at 450 nm using a microplate reader.

[6] = tested on: human foreskin fibroblast (HFF) cell line; experiment: cytotoxicity assay (CCK-8); assay type: cell-based; details: for EC50: HFF cells, 24 h exposure, CCK-8
Experimental: as §4

[7] = tested on: mouse embryonic fibroblast (NIH/3T3) cell line; experiment: cytotoxicity assay (CCK-8); assay type: cell-based; details: for inhibition of cell viability: NIH/3T3; for EC50: NIH/3T3 cells, 24 h exposure, CCK-8
Experimental: as §4

[8] = tested on: Babesia microti (Munich strain); experiment: in vivo growth inhibition and drug combination assays in B. microti-infected BALB/c mice; details: for peak parasitemia level: 5 days
Experimental: as §1
In vivo growth inhibition assays of EA, β-CD EA and APSP EA were performed in B. microti-infected BALB/c mice in accordance with the previous protocol in two separate trials. […] The mice in groups 2–8 were intraperitoneally (i.p.) injected with 0.5 ml of inoculum (1 × 10^7 B. microti-iRBCs). Group 1 was left uninfected and untreated as a negative control. When the average parasitemia in all mice reached 1%, drug treatment was initiated for 5 consecutive days. […] DA at a concentration of 25 mg/kg body weight (BW) was administrated i.p. to the third group as a reference drug control.

B. microti = experiment: nested PCR detection of B. microti ss-rRNA gene in blood of treated mice; assay type: in vivo, Babesia microti; details: day 42; 25 mg/kg DA
P. falciparum = tested on: P. falciparum; design: method as in PMID 19015354; details: cited from earlier work
L. major = tested on: L. major; design: method as in PMID 28643086; details: cited from earlier work

CC(=O)NCC(=O)O.CC(=O)NCC(=O)O.N=C(N)c1ccc(N=NNc2ccc(C(=N)N)cc2)cc1 [DA, diminazene aceturate]
IC50 [1]: 0.35 ± 0.06 µM | IC50 [2]: 0.71 ± 0.05 µM | IC50 [3]: 0.68 ± 0.09 µM | IC50 [4]: 0.43 ± 0.05 µM | IC50 (B. caballi (USDA strain)): 0.022 µM and 0.02 µM | EC50 [5]: > 100 µM | inhibition of cell viability ([5]; MDBK, 100 µM, separate assay): did not show any inhibition | EC50 [6]: > 100 µM | inhibition of cell viability ([6]; HFF, 100 µM, separate assay): did not show any inhibition | inhibition of cell viability ([7]; 100 µM, separate assay): did not show any inhibition | EC50 [7]: > 100 µM | peak parasitemia level ([8]; first assay, 25 mg/kg DA i.p., peak on day 8, DDW control 57.7%): 5.2% | day p.i. from which parasitemia was undetectable by microscopic examination ([8]; second assay, 25 mg/kg DA): 13 day p.i. | peak parasitemia level ([8]; second assay, 25 mg/kg DA i.p., DDW control 58.3%): 3.9% | parasite DNA in blood (nPCR) (B. microti): not detected

O=c1oc2c(O)c(O)cc3c(=O)oc4c(O)c(O)cc1c4c23 [EA, Ellagic acid]
concentration that significantly inhibited the growth ([1]; B. bovis, t-test vs control): 0.078 µM | IC50 ([1]; Babesia bovis, in Bos taurus, 96 h): 9.58 ± 1.47 µM | concentration that significantly inhibited the growth ([2]; T. equi, t-test vs control): 0.125 µM | IC50 ([2]; Theileria equi, 96 h): 7.46 ± 0.6 µM | concentration that significantly inhibited the growth ([3]; B. bigemina, t-test vs control): 0.078 µM | IC50 ([3]; Babesia bigemina, 96 h): 7.87 ± 5.8 µM | concentration that significantly inhibited the growth ([4]; B. divergens, t-test vs control): 0.125 µM | IC50 ([4]; Babesia divergens, 96 h): 5.41 ± 2.8 µM | concentration that significantly inhibited the growth (B. caballi (USDA strain); B. caballi, t-test vs control): 0.125 µM | IC50 (B. caballi (USDA strain); Babesia caballi, 96 h): 3.29 ± 0.42 µM | EC50 ([5]; Bos taurus, MDBK, 24 h): > 800 µM | Selective indices MDBK ([5]; EC50 MDBK / IC50 B. bigemina): > 101.3 | Selective indices MDBK ([5]; EC50 MDBK / IC50 B. bovis): > 83.3 | Selective indices MDBK ([5]; EC50 MDBK / IC50 B. divergens): > 148.1 | Selective indices MDBK ([5]; EC50 MDBK / IC50 T. equi): > 106.7 | inhibition of cell viability ([5]; MDBK, 800 µM): did not show any inhibition | Selective indices HFF ([6]; EC50 HFF / IC50 B. bigemina): > 101.3 | Selective indices HFF ([6]; EC50 HFF / IC50 B. bovis): > 83.3 | Selective indices HFF ([6]; EC50 HFF / IC50 B. divergens): > 148.1 | Selective indices HFF ([6]; EC50 HFF / IC50 T. equi): > 106.7 | EC50 ([6]; Homo sapiens): > 800 µM | Selective indices NIH/3T3 ([7]; EC50 NIH/3T3 / IC50 B. bigemina): > 101.3 | Selective indices NIH/3T3 ([7]; EC50 NIH/3T3 / IC50 B. bovis): > 83.3 | Selective indices NIH/3T3 ([7]; EC50 NIH/3T3 / IC50 B. divergens): > 148.1 | Selective indices NIH/3T3 ([7]; EC50 NIH/3T3 / IC50 T. equi): > 106.7 | EC50 ([7]; Mus musculus, NIH3T3): > 800 µM | inhibition of cell viability ([7]; 800 µM): did not show any inhibition | peak parasitemia level ([8]; first assay, 35 mg/kg EA i.p., peak on day 8, DDW control 57.7%): 29.5% | IC50 (P. falciparum): 0.33 µM | IC50 (L. major): 9.8 μg/ml^e
